This note sets out measurements from US9233961B2, “Compounds and compositions for the treatment of parasitic diseases” (Novartis AG, priority 2013, dated 2016).

The term EC50 denotes the concentration that produces a half-maximal response.

Experiment [1] relates to Trypanosoma brucei Lister 427 strain bloodstream form. The experiment is described as follows: Assay for proliferation of kinetoplastid parasite Trypanosoma brucei. Type of experiment: cell-based. The following applies: Lister 427 bloodstream form, 48 hours, read-out: T. brucei EC50. From the text: Assay for Proliferation of Kinetoplastid Parasite Trypanosoma brucei.
The proliferation is quantified by the addition of Cell Titer Glo (Promega®) a luminescent cell viability assay that measures the number of viable cells in culture based on the quantification of cellular ATP amount, which is an indicator of metabolically active cells.
The following assay illustrates the invention without in any way limiting the scope of the invention. This parasite proliferation assay measures the increase in parasite growth using an assay that measures ATP activity, Cell Titer Glo®.
Trypanosoma brucei Lister 427 strain is grown in HMI-9 Trypanosome media for T. brucei bloodstream form. 30 μl of HMI-9 media is dispensed into 384 well assay plates. 200 nl of compounds of the invention (in DMSO), including anti-trypanosome controls (Pentamidine and suramin), are then transferred into the assay plates, as well as DMSO alone to serve as a negative control for inhibition. Then 25 μl of a suspension of T. brucei culture in HMI-9 media is dispensed into the assay plates. The final concentration of parasites in culture corresponds to 1.7% of 0.5 uM ATP activity with Cell Titer Glo® in HMI-9 media. The plates are placed in a 37° C. incubator for 48 hours in an atmospheric environment containing 5% CO2. 40 μl of Cell Titer Glo® is dispensed into the plates. The plates are then read for luminescence. The percentage inhibition of 50%, EC50, is calculated for each compound.

The subject of experiment [2] is L. donovani HU3 strain in mouse peritoneal macrophages. In words: Assay for proliferation of Leishmania parasites in mouse peritoneal macrophages. Type of experiment: cell-based, Leishmania donovani. The following applies: Leishmania donovani, Peritoneal macrophage, read-out: L. donavani Macrophage EC50. A digest of the protocol: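 EC50 derives from counting SYBR Green-stained parasite nuclei by high-content imaging after 5 days' compound exposure. Host cells were uninfected BALB/c peritoneal macrophages, infected for 24 h before dosing with spleen-derived L. donovani HU3 parasites from mice infected 9–11 weeks.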

Experiment [3] deals with Leishmania donovani axenic amastigote parasites. In words: Leishmania donovani axenic amastigote proliferation assay. Type of experiment: cell-based. The note with it: axenic amastigotes in vitro, read-out: L. donovani amastigotes EC50. The procedure, abridged: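 EC50 values come from CellTiter-Glo luminescence after 2-day compound exposure of axenic amastigotes (9600 per well) at 37 °C, 5% CO2. Medium: RPMI 1640, 20% heat-inactivated FBS, folic acid, adenosine, D-glucose, 25 mM MES, adjusted to pH 5.5.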

A value given as a limit tells only on which side of the number the result lay.

Take `COc1ccc(-c2cnc3nc(-c4cc(NC(=O)c5ccco5)ccc4Cl)[nH]c3c2)c(OC)n1` [Compound 61]: the values for the EC50 in experiment [1], in experiment [2] and in experiment [3] were 0.182 µM, 3.2 µM and 1.13 µM, respectively.

Regarding `Cc1ccc(CC(=O)Nc2ccc(Cl)c(-c3nc4ncc(C)cc4[nH]3)c2)cc1` [Compound 167], the concentration giving a half-maximal response (EC50) is > 11.5 µM in experiment [1], 16.1 µM in experiment [2] and > 25 µM in experiment [3].

`Cc1cnc2nc(-c3cc(NC(=O)c4ccc(S(C)(=O)=O)cc4)ccc3Cl)[nH]c2c1` [Compound 193]: the EC50 in experiment [1] is 15.2 µM; in experiment [2] it was > 50 µM; in experiment [3] it was > 25 µM.

As to `Cc1cnc2nc(-c3cc(NC(=O)Cc4cccnc4)ccc3Cl)[nH]c2c1` [Compound 97], the figures for the EC50 in experiment [1], in experiment [2] and in experiment [3] were > 18.7 µM, > 50 µM and > 25 µM, respectively.

Turning to `CO[C@@H](C(=O)Nc1ccc(Cl)c(-c2nc3ncc(C)cc3[nH]2)c1)c1ccccc1` [Compound 181], the EC50 is > 14.5 µM in experiment [1], > 30.5 µM in experiment [2] and > 25 µM in experiment [3].

`Cc1cnc2nc(-c3cc(NC(=O)C(C)(C)c4ccc(Cl)cc4)ccc3Cl)[nH]c2c1` [Compound 81]: the EC50 was 10.8 µM in experiment [1], 16.9 µM in experiment [2] and > 25 µM in experiment [3].

Consider `Cc1cnc2nc(-c3cc(NS(=O)(=O)Cc4ccccc4)ccc3Cl)[nH]c2c1` [Example 250, N-(4-chloro-3-{6-methyl-1H-imidazo[4,5-b]pyridin-2-yl}phenyl)-1-phenylmethanesulfonamide], for which the EC50 in experiment [1] is > 25 µM; in experiment [2], > 50 µM; in experiment [3] it was > 25 µM.

For `Cc1cnc2nc(-c3cc(NC(=O)c4ccc(-c5cnccn5)cn4)ccc3Cl)[nH]c2c1` [Compound 166], the EC50 in experiment [1] is > 25 µM; in experiment [2], > 27.8 µM; in experiment [3], > 25 µM.

For the compound `Cc1cnc2nc(-c3cc(NC(=O)c4csc(C)n4)ccc3Cl)[nH]c2c1` [Compound 107], the EC50 in experiment [1] worked out at 0.51 µM; in experiment [2] it was 21.5 µM; in experiment [3], 5.5 µM.

Consider `Cc1cnc2nc(-c3cc(NC(=O)c4ccc(C(C)(C)C)o4)ccc3Cl)[nH]c2c1` [Compound 190], for which the EC50 was 5.8 µM in experiment [1], 20.2 µM in experiment [2] and > 24 µM in experiment [3].

As for `COc1ccc(-c2cnc3nc(-c4cc(NC(=O)c5ccco5)ccc4Cl)[nH]c3c2)cc1Cl` [Compound 48], the EC50 is 0.076 µM in experiment [1], 8 µM in experiment [2] and 0.53 µM in experiment [3].

Take `Cc1cnc2nc(-c3cc(NC(=O)OCC(F)(F)F)ccc3Cl)[nH]c2c1` [Compound 225]: the EC50 in experiment [1] is > 25 µM; in experiment [2] it was > 50 µM; in experiment [3] it was > 25 µM.

With `Cc1cnc2nc(-c3cc(Nc4ccc(C#N)cn4)ccc3Cl)[nH]c2c1` [Compound 263], the EC50 is > 25 µM in experiment [1], > 30.1 µM in experiment [2] and > 25 µM in experiment [3].

For `CN1CCOc2cc(-c3cnc4nc(-c5cc(NC(=O)c6ccco6)ccc5Cl)[nH]c4c3)ccc21` [Compound 72], the EC50 in experiment [1] amounted to 0.073 µM; in experiment [2] it was 3.2 µM; in experiment [3], 0.67 µM.

On to `Cc1cnc2nc(-c3cc(NC(=O)c4cc(C5CC5)n[nH]4)ccc3Cl)[nH]c2c1` [Compound 158], for which the EC50 is 13 µM in experiment [1], > 50 µM in experiment [2] and > 25 µM in experiment [3].

`Cc1cnc2nc(-c3cc(NC(=O)CNC(=O)OC(C)(C)C)ccc3Cl)[nH]c2c1` [Compound 112]: the EC50 is > 24.1 µM in experiment [1], > 50 µM in experiment [2] and > 25 µM in experiment [3].

For the compound `Cc1cnc2nc(-c3cc(NC(=O)COc4ccccc4)ccc3Cl)[nH]c2c1` [Compound 120], the values for the EC50 in experiment [1], in experiment [2] and in experiment [3] were 10.5 µM, > 50 µM and > 25 µM, respectively.

As for `Cc1cnc2nc(-c3cc(Nc4cccnc4N4CCOCC4)ccc3Cl)[nH]c2c1` [Compound 264], the EC50 was 11.7 µM in experiment [1], > 32.3 µM in experiment [2] and > 25 µM in experiment [3].

In the case of `Cc1cnc2nc(-c3cc(NC(=O)c4ncc[nH]4)ccc3Cl)[nH]c2c1` [Compound 95], the EC50 is > 14.4 µM in experiment [1], > 50 µM in experiment [2] and > 25 µM in experiment [3].

Turning to `Cc1cnc2nc(-c3cc(NC(=O)c4nccs4)ccc3Cl)[nH]c2c1` [Compound 192], the EC50 was 0.49 µM in experiment [1], > 37.9 µM in experiment [2] and 10.2 µM in experiment [3].

`Cc1cnc2nc(-c3cc(NC(=O)Cc4onc5ccccc45)ccc3Cl)[nH]c2c1` [Compound 146]: the EC50 in experiment [1] was > 14.2 µM; in experiment [2], 21.7 µM; in experiment [3] it was > 25 µM.

As for `Cc1cnc2nc(-c3cc(NC(=O)c4cocn4)ccc3Cl)[nH]c2c1` [Compound 113], the EC50 in experiment [1] amounted to 1.68 µM; in experiment [2], 26.4 µM; in experiment [3], 15.3 µM.

Take `Cc1cnc2nc(-c3cc(NC(=O)c4cscn4)ccc3Cl)[nH]c2c1` [Compound 205]: the EC50 in experiment [1] is 1.26 µM; in experiment [2], > 46.3 µM; in experiment [3] it was 14.3 µM.

For `Cc1cnc2nc(-c3cc(NC(=O)c4sc(C)nc4C)ccc3Cl)[nH]c2c1` [Compound 191], the EC50 in experiment [1] is > 16.2 µM; in experiment [2], > 39.1 µM; in experiment [3], > 25 µM.

For the compound `O=C(Nc1ccc(Cl)c(-c2nc3ncc(-c4ccc(OCC5CC5)cc4)cc3[nH]2)c1)c1ccco1` [Compound 36], the EC50 is 0.188 µM in experiment [1], 2.27 µM in experiment [2] and 1.03 µM in experiment [3].

Take `Cc1cnc2nc(-c3cc(NC(=O)C(C)c4ccc(F)cc4)ccc3Cl)[nH]c2c1` (stereo not drawn) [Compound 119]: the EC50 in experiment [1] was > 16.2 µM; in experiment [2] it was 24.2 µM; in experiment [3], > 25 µM.

As for `Cc1cnc2nc(-c3cc(NC(=O)c4cnccn4)ccc3Cl)[nH]c2c1` [Compound 206], the results for the EC50 in experiment [1], in experiment [2] and in experiment [3] were 0.174 µM, 13.4 µM and 1.56 µM, respectively.

Consider `CS(=O)(=O)c1ccc(-c2cnc3nc(-c4cc(NC(=O)c5ccco5)ccc4Cl)[nH]c3c2)cc1` [Compound 46], for which the EC50 in experiment [1] worked out at 0.037 µM; in experiment [2] it was 1.33 µM; in experiment [3] it was 0.5 µM.

`Cc1cnc2nc(-c3cc(NC(=O)c4nc(C)cs4)ccc3Cl)[nH]c2c1` [Compound 80]: the EC50 in experiment [1] came to 0.61 µM; in experiment [2], 18.5 µM; in experiment [3] it was 5.9 µM.

`Cc1cnc2nc(-c3cc(NC(=O)c4ccno4)ccc3Cl)[nH]c2c1` [Compound 155]: the EC50 in experiment [1] was 4.3 µM; in experiment [2], > 39.7 µM; in experiment [3], 7.2 µM.

`Cc1cnc2nc(-c3cc(Nc4ccc(Cl)cc4)ccc3Cl)[nH]c2c1` [Example 256, 4-chloro-N-(4-chlorophenyl)-3-{6-methyl-1H-imidazo[4,5-b]pyridin-2-yl}aniline]: the EC50 in experiment [1] was > 18.1 µM; in experiment [2] it was > 50 µM; in experiment [3] it was > 25 µM.

Take `Cc1cnc2nc(-c3cc(NC(=O)c4cnc(C)cn4)ccc3Cl)[nH]c2c1` [Compound 178]: the EC50 in experiment [1] was 15.2 µM; in experiment [2] it was > 50 µM; in experiment [3] it was 23.8 µM.

For `O=C(Nc1ccc(Cl)c(-c2nc3ncc(C(F)(F)F)cc3[nH]2)c1)C1CCCC1` [Compound 282], the EC50 in experiment [1] worked out at 11.2 µM; in experiment [2], 3.3 µM; in experiment [3], 17.5 µM.

Take `Cc1cnc2nc(-c3cc(N4CCOCC4)ccc3Cl)[nH]c2c1` [Compound 257]: the EC50 in experiment [1] was > 25 µM; in experiment [2], > 50 µM; in experiment [3] it was > 25 µM.

Regarding `Cc1cnc2nc(-c3cc(NC(=O)N4CCCCC4)ccc3Cl)[nH]c2c1` [Compound 239], the results for the EC50 in experiment [1], in experiment [2] and in experiment [3] were 2.06 µM, > 35.6 µM and 13.9 µM, respectively.

`CCOC(=O)Nc1ccc(Cl)c(-c2nc3ncc(-c4ccc5c(c4)CC(=O)N5)cc3[nH]2)c1` [Compound 378]: the EC50 in experiment [1] amounted to 0.02 µM; in experiment [2] it was 3.3 µM; in experiment [3], 0.69 µM.

Regarding `Cc1cnc2nc(-c3cc(NC(=O)c4cccc(N(C)C)c4)ccc3Cl)[nH]c2c1` [Compound 184], the EC50 in experiment [1] is 8.4 µM; in experiment [2], > 50 µM; in experiment [3] it was > 25 µM.

Take `Cc1cnc2nc(-c3cc(NC(=O)c4cc(C)on4)ccc3Cl)[nH]c2c1` [Compound 79]: the results for the EC50 in experiment [1], in experiment [2] and in experiment [3] were 12.5 µM, > 50 µM and > 25 µM, respectively.

Regarding `Cc1cnc2nc(-c3cc(NC(=O)Cc4ccc(F)c(F)c4)ccc3Cl)[nH]c2c1` [Compound 142], the EC50 in experiment [1] is > 14 µM; in experiment [2], 20.7 µM; in experiment [3] it was > 25 µM.
